Measured values as given in paper PMC8433531 (Proceedings of the National Academy of Sciences of the …, 2021).

Key:
SARS-CoV-2 [1] = test: Hit validation across cell systems; assay type: cell-based; conditions: Huh7, LNCaP, Caco-2, Vero E6, iAEC2
SARS-CoV-2 [2] = assay type: cell-based; conditions: for antiviral activity against SARS-CoV-2 in iAECs: iAEC2
SARS-CoV-2 [3] = test: microbe, parasite or virus in culture; assay type: cell-based; conditions: Severe acute respiratory syndrome coronavirus 2, Huh-7, 48 h
SARS-CoV-2 [4] = assay type: cell-based
SARS-CoV-2 [5] = conditions: cited from earlier work
SARS-CoV-2 [6] = test: SARS-CoV-2 infection of Caco-2 cells with MEK inhibitors; assay type: cell-based; conditions: Caco-2, 10 µM
SARS-CoV-2 [7] = test: Viral binding assay on Huh7 cells; assay type: cell-based; conditions: lactoferrin 1,250 and 6,250 nM, remdesivir 10 nM, NaClO3 7 d
SARS-CoV-2 [8] = assay type: cell-based; conditions: Huh7, MOI of 1, 1,000 nM, 24 and 48 h p.i., versus untreated

## O=C(NC1CCN(CCCCC2(C(=O)NCC(F)(F)F)c3ccccc3-c3ccccc32)CC1)c1ccccc1-c1ccc(C(F)(F)F)cc1 [Lomitapide]
SARS-CoV-2 [1]
  efficacy across all tested cell systems: maintained efficacy across all tested cell systems
SARS-CoV-2 [2]
  antiviral activity against SARS-CoV-2 in iAECs: dose-responsive antiviral activity

## CCc1nc(C(N)=O)c(Nc2ccc(N3CCC(N4CCN(C)CC4)CC3)c(OC)c2)nc1NC1CCOCC1 [Gilteritinib]
SARS-CoV-2 [2]
  antiviral activity against SARS-CoV-2 in iAECs: dose-responsive antiviral activity

## CCC(CC)COC(=O)[C@H](C)N[P@](=O)(OC[C@H]1O[C@@](C#N)(c2ccc3c(N)ncnn23)[C@H](O)[C@@H]1O)Oc1ccccc1 [Remdesivir]
SARS-CoV-2 [1]
  efficacy across all tested cell systems: maintained efficacy across all tested cell systems
SARS-CoV-2 [2]
  antiviral activity at high MOI: retained antiviral activity
  antiviral activity against SARS-CoV-2 in iAECs: dose-responsive antiviral activity
SARS-CoV-2 [3]
  IC50: 6.7 nM

## Cc1cc(OCCN2CCOCC2)nn1-c1ccc2ccccc2c1 [S1RA]
SARS-CoV-2 [2]
  antiviral activity at high MOI: retained antiviral activity
  antiviral activity against SARS-CoV-2 in iAECs: dose-responsive antiviral activity

## transferrin: transferrin (Sigma-Aldrich; T2036), control to rule out iron chelation
SARS-CoV-2 [4]; Huh7, 6,250 nM
  antiviral activity (iron chelation control): inactive

## CC(NC(=O)[C@H](Cc1ccccc1)NC(=O)OCc1ccccc1)C(=O)CF (some centres unmarked) [Z-FA-FMK]
SARS-CoV-2 [1]
  efficacy across all tested cell systems: maintained efficacy across all tested cell systems

## CC(C)/N=c1\cc2n(-c3ccc(Cl)cc3)c3ccccc3nc-2cc1Nc1ccc(Cl)cc1 [CLOFAZIMINE]
SARS-CoV-2 [2]
  antiviral activity against SARS-CoV-2 in iAECs: dose-responsive antiviral activity
SARS-CoV-2 [5]
  viral infection in a hamster model of disease: block viral infection

## CC(=O)Nc1cccc(-n2c(=O)n(C3CC3)c(=O)c3c(Nc4ccc(I)cc4F)n(C)c(=O)c(C)c32)c1 [trametinib]
SARS-CoV-2 [6]
  exacerbation of infection: exacerbation effect was observed
SARS-CoV-2 [4]
  increase of viral infection: greater than twofold increase

## CC(C)[N+]1(C)[C@@H]2CC[C@H]1C[C@@H](OC(=O)C(CO)c1ccccc1)C2 (some centres unmarked) [Ipratropium Bromide]
SARS-CoV-2 [1]
  efficacy across all tested cell systems: maintained efficacy across all tested cell systems
SARS-CoV-2 [2]
  antiviral activity against SARS-CoV-2 in iAECs: dose-responsive antiviral activity

## Cn1cnc2c(F)c(Nc3ccc(Br)cc3F)c(C(=O)NOCCO)cc21 [binimetinib]
SARS-CoV-2 [6]
  exacerbation of infection: exacerbation effect was observed
SARS-CoV-2 [4]
  increase of viral infection: greater than twofold increase

## [Na+].[O-][Cl+2]([O-])[O-] [NaClO3]
SARS-CoV-2 [7]
  SARS-CoV-2 attachment to Huh7 cells: reduced

## O=C(c1ccc(F)c(F)c1Nc1ccc(I)cc1F)N1CC(O)([C@@H]2CCCCN2)C1 [cobimetinib]
SARS-CoV-2 [8]
  percentage of viral RNA-positive cells: increased at 48 h p.i., but not at 24 h p.i.
SARS-CoV-2 [4]
  increase of viral infection: greater than twofold increase

## CCN(CC)CCCC(C)Nc1ccnc2cc(Cl)ccc12 (centres unmarked) [chloroquine]
SARS-CoV-2 [4]; Huh7, dose-response confirmation
  concentrations at which efficacious: above 1 µM
